Results on 1 molecule are retold here after patent US12220703B2, “Multi function spinning platform” (Danmarks Tekniske Universitet, priority 2018, dated 2025).

This assay deals with P. aeruginosa biofilm. The assay is described as follows: Antibiotic treatment of mature biofilm in perfusion on the centrifugal microfluidic disc, propidium iodide dead/alive biomass by confocal microscopy. It counts as cell-based. As to conditions: 72 hours biofilm, after 24 hours of antibiotic perfusion, ciprofloxacin 4 μg/mL. How it is done:
The following is an example of how to set up an experiment using the centrifugal microfluidic disc according to the present disclosure. Initially, the entire system including the microfluidic channels is sterilized. After the sterilization of the disc, the system was filled with a medium and left overnight at a low flow rate (pump set on 0.5 RPM, around 60 μL/min). The inoculation of the bacteria in the sterilized disc was achieved by addition of 40 μL overnight culture of 1:100 diluted P. aeruginosa though the inoculation channel situated in close proximity to the cell culture chamber (see FIG. 30). During inoculation, the loading opening was closed to create a back-pressure avoiding bacteria occlusion in the serpentine channel. The adhesion of the bacteria in the culture chamber was carried out in stop flow for one hour, followed by rotation at the set frequency. The total volume of the cell chamber is around 55 μL and only 40 μL of PAO1 was inoculated in order to prevent the introduction of bacteria in the inlet channel. The inoculation in the flow system was achieved by stopping the pump and adding 250 μL overnight culture of 1:100 diluted P. aeruginosa in the selected channels in proximity of the flow chamber. It was important to clamp the silicone tubes which were feeding the channels in order to avoid a back flow. […]

As to `O=C(O)c1cn(C2CC2)c2cc(N3CCNCC3)c(F)cc2c1=O` [antibiotic, Ciprofloxacin], the “bacteria dead after antibiotic perfusion” value is given as “around 70%” (flow rate 0.3 μL/min) and “around 50%” (flow rate 1 μL/min).
